Reference: patent US20060275294A1, “METHOD OF PREVENTION AND TREATMENT OF AGING, AGE-RELATED DISORDERS AND/OR AGE-RELATED MANIFESTATIONS INCLUDING ATHEROSCLEROSIS, PERIPHERAL VASCULAR DISEASE, CORONARY ARTERY DISEASE, OSTEOPOROSIS, ARTHRITIS, TYPE 2 DIABETES, DEMENTIA, ALZHEIMERS DISEASE AND CANCER” (priority 2002, published 2006)
Where two headings read alike, the source gives them in different places.

What was measured:
[1] = tested on: animals with experimental arthritis; settings: prophylactic or therapeutic treatment; cited from earlier work
leukemic cells = settings: concentration- and time-dependent; cited from earlier work
[2] = tested on: NOD/SCID mice engrafted with human primary leukemic cells; settings: mouse, in vivo; cited from earlier work
[3] = tested on: patients with primary hypercholesterolemia; settings: cited from earlier work
[4] = tested on: Zucker lean and fatty rats; settings: 50 mg/kg/day vs vehicle; cited from earlier work
[5] = 80 mg daily; cited from earlier work
KK/Ay mice = settings: mouse, in vivo; cited from earlier work
[6] = tested on: human T, B and myeloma tumor cells; settings: by promoting apoptosis; cited from earlier work
[7] = tested on: MCF-7 breast cancer cells; settings: absence of estradiol; cited from earlier work
[8] = tested on: patients with type 2 diabetes; settings: cited from earlier work
[9] = tested on: diabetic patients with active Charcot neuroarthropathy; settings: cited from earlier work
Interleukin-6 = settings: infusion; cited from earlier work
osteoblasts = settings: cited from earlier work
[10] = tested on: patients with Paget's bone disease; settings: end of study, cited from earlier work
[11] = tested on: human epidermoid head and neck KB and lung H1355 cancer cells; settings: read-out: IC(50) growth inhibition; 48 h exposure; cited from earlier work
[12] = tested on: patients with osteoarthritis; assay: Osteoarthritis patients in applicant's clinic; format: in vivo, human
[13] = severe chronic renal failure or dialysis; cited from earlier work
[14] = tested on: renal cell carcinoma cell line, GRC-1; settings: 20 micromol/L, 72 hours; cited from earlier work
[15] = tested on: New Zealand White rabbits; settings: cited from earlier work
[16] = tested on: cultured human astrocytes; settings: cited from earlier work
T lymphoma cells = settings: cited from earlier work
[17] = 54 mg/day; cited from earlier work
[18] = tested on: IL-1 beta, IL-6, and TNF-alpha; settings: cited from earlier work
[19] = tested on: three human pancreatic cancer cell types; settings: three cell lines; read-out: mean IC(50) proliferation; cited from earlier work
[20] = tested on: spontaneously hypertensive rats (SHR); settings: cited from earlier work
[21] = tested on: experimental diabetic rat model; settings: cited from earlier work
[22] = target: T1, epidermal growth factor receptor tyrosine kinase (Rattus norvegicus, UniProt G3V6K6); settings: SHR vs normotensive Wistar rat cells; cited from earlier work
T1 construct: measured thymidine incorporation in epidermal growth factor-stimulated vascular smooth muscle cells; endogenous in cells; host or cells: aortic vascular smooth muscle cells of SHR and normotensive rats

[23] = tested on: rat vascular smooth muscle cells; settings: cited from earlier work
[24] = tested on: human breast cancer MCF-7 cells; settings: cited from earlier work
mice = settings: cited from earlier work
STAT1 and STAT3 = settings: cited from earlier work
[25] = tested on: cultured human pituitary adenoma cells; design: mean inhibition of thymidine uptake (+/−SD inhibition of basal) / mean inhibition of thymidine uptake: unit of the concentration uncertain; settings: cited from earlier work
[26] = tested on: human prostate carcinoma PC-3 cell line; settings: cited from earlier work
[27] = tested on: orthotopic prostate carcinoma model of PC-3 cells in nude mice; settings: cited from earlier work
NF-kappaB = settings: cited from earlier work
Male Wistar rats = settings: cited from earlier work
[28] = tested on: MMTV-Her-2/neu NF639 cell; settings: cited from earlier work
STAT-1 = settings: cited from earlier work
JB6 cell = settings: cited from earlier work
Tg APPsw transgenic mice = settings: mouse, in vivo; cited from earlier work
neutrophil = settings: in vitro; cited from earlier work
[29] = tested on: murine neuron-like cells (N2a) and primary neurons with Swedish mutant APP; settings: cited from earlier work
[30] = tested on: human epidermoid carcinoma (A431) cells; settings: cited from earlier work
IKK [31] = settings: 50 to 200 μM, intestinal epithelial cell line; cited from earlier work
IKK [32] = target: T2, IKK (Homo sapiens, UniProt O14920+O15111); settings: human epithelial cells; cited from earlier work
T2 construct: endogenous in cells; also 'human epithelial cells'

[33] = tested on: mouse mammary carcinoma 4T1 cells; settings: dose- and time-dependent; cited from earlier work
[34] = tested on: esophageal carcinoma cell line CE48T/VGH; settings: cited from earlier work
sIL6R = settings: four-day dietary intervention, exchange for LA; cited from earlier work
rat models = settings: meta-analysis of 13 studies; cited from earlier work

T1 sequence (G3V6K6 25-1209): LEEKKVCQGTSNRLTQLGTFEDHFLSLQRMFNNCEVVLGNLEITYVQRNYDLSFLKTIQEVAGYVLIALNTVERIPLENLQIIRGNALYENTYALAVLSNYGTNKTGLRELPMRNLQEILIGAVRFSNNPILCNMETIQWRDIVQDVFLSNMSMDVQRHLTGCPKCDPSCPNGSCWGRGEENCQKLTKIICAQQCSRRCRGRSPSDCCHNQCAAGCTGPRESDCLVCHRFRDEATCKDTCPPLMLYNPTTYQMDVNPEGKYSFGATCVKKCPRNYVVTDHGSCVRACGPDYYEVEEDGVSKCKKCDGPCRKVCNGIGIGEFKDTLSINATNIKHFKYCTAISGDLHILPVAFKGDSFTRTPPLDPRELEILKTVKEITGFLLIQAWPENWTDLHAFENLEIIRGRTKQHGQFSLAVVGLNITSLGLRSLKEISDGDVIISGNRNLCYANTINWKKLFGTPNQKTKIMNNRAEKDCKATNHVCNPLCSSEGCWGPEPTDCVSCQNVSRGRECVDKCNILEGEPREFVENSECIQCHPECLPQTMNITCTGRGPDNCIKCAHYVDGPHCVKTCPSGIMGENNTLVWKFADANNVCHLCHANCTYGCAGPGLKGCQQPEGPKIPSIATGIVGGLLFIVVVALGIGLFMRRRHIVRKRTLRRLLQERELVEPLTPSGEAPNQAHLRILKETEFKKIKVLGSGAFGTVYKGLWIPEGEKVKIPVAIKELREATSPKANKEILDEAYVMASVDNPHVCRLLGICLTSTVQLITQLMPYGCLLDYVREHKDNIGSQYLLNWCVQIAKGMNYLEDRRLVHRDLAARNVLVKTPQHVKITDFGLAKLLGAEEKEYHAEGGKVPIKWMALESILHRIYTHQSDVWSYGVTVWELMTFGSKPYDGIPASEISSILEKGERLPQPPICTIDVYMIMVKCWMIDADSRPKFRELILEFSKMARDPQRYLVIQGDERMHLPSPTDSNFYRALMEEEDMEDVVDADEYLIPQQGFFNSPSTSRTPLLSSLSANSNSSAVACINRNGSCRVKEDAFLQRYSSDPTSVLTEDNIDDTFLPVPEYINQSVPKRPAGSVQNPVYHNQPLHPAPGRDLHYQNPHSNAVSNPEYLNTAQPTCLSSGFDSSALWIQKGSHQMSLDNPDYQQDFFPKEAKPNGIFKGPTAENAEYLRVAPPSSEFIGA
T2 sequence (O14920 whole entry): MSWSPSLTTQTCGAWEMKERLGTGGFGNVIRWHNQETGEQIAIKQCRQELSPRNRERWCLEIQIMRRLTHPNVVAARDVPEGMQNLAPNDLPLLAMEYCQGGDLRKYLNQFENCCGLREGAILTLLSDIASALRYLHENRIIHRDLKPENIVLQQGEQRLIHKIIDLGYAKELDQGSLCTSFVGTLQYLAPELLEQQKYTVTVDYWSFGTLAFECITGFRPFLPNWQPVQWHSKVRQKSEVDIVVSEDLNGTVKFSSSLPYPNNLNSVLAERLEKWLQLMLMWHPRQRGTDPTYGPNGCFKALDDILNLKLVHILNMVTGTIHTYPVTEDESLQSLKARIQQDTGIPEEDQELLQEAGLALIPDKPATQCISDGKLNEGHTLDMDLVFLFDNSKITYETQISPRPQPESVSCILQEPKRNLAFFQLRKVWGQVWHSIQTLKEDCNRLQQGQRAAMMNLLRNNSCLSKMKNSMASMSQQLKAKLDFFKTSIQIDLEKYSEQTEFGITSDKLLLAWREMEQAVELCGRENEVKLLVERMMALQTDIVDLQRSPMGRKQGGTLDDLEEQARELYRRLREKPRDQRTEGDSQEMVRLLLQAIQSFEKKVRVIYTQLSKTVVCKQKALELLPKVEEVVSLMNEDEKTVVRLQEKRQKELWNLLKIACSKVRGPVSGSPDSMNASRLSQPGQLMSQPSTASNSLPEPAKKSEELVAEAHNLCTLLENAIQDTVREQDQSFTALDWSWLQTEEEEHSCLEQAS
T2 sequence (O15111 whole entry): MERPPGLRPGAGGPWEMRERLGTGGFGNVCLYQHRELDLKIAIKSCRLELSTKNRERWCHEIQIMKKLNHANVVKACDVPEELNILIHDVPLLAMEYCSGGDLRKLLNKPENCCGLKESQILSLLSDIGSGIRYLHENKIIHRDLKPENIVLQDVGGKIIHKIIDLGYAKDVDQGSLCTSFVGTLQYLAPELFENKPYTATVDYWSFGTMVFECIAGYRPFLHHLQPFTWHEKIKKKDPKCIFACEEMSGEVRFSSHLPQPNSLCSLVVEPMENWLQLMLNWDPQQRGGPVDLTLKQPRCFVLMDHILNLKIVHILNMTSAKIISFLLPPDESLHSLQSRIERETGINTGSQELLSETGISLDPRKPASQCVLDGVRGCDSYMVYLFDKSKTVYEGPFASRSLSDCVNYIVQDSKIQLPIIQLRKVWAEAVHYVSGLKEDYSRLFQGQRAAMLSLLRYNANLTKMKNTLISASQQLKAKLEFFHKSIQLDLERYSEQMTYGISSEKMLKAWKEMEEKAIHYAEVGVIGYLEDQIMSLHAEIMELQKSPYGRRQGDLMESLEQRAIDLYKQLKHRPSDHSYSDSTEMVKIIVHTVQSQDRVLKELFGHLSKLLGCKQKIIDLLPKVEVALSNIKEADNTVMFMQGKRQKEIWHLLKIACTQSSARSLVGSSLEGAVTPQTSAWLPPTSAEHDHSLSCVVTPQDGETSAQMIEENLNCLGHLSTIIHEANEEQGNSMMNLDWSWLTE
T2 sequence (Q9Y6K9 whole entry partner): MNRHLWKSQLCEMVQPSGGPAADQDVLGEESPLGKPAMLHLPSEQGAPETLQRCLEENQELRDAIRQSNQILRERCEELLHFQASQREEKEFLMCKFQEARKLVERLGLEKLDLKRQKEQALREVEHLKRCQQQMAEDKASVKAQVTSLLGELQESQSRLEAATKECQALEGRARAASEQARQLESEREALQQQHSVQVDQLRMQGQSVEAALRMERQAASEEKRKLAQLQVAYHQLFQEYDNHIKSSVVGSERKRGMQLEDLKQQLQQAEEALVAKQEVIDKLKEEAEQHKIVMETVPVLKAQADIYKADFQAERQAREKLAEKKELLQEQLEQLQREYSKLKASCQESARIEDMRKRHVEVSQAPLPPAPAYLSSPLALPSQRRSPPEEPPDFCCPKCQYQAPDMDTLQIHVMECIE

O=P(O)(O)C(O)(Cc1cnc2ccccn12)P(=O)(O)O [YM529]
severity of experimental arthritis [1]: suppressed the severity of disease | growth of leukemic cells incl. P-gp over-expressing cell line (leukemic cells): inhibited the growth | survival [2]: prolonged the survival

CC(C)c1c(C(=O)Nc2ccccc2)c(-c2ccccc2)c(-c2ccc(F)cc2)n1CC[C@@H](O)C[C@@H](O)CC(=O)O [atorvastatin]
FMD ([3]; 2 weeks): higher than baseline | IL-6 levels ([3]; 3 and 9 months vs baseline): significantly reduced | sICAM-1 levels ([3]; FH 80 mg/day, NFH 10 mg/day, 2 weeks to 9 months vs baseline): significantly reduced | increase in glucose infusion rate and glucose disposal (Rd) [4]: approximately two-fold | carotid IMT [5]: significant IMT regression | insulin resistance index (KK/Ay mice): decreased | non-HDL-cholesterol level (KK/Ay mice): significantly decreased | effect on human T, B and myeloma tumor cells [6]: cytotoxic effect | proliferation of MCF-7 cells [7]: inhibit the proliferation | relative risk reduction in the primary endpoint ([8]; 10 mg daily for four years): 37% | rate reduction of major cardiovascular events ([8]; 10 mg daily vs placebo): 37% | patients with at least one major cardiovascular event ([8]; 10 mg daily, n=1428, median follow-up 3.9 years): 83 | acute coronary heart disease events reduced ([8]; 10 mg daily): 36% | adverse events ([8]; 10 mg daily): No excess of adverse events | coronary re-vascularisations reduced ([8]; 10 mg daily): 31% | death rate reduced ([8]; 10 mg daily): 27% | major cardiovascular event rate ([8]; 10 mg daily): 1.54 per 100 person-years at risk | rate of stroke reduced ([8]; 10 mg daily): 48%

NCCC(O)(P(=O)(O)O)P(=O)(O)O [pamidronate]
Urinary deoxypyridinoline (means+/−SEM) ([9]; single infusion 90 mg, 4 weeks): 4.4+/−0.4 nmol/mmol creatinine | bone-specific alkaline phosphatase ([9]; single infusion 90 mg, after 4 weeks): 14.1+/−1.2 u/l | symptoms ([9]; vs placebo group): improvement | mean serum levels of Interleukin-6 (Interleukin-6): significantly decreased | production by osteoblasts of interleukin-6 (osteoblasts): inhibit | HDL-C increased ([10]; 60 mg intravenous, three cycles every 3 months): 10.3% | LDL-C decreased ([10]; 60 mg intravenous, three cycles): 5.5% | TC/HDL-C decreased [10]: 12.5% | bone ALP and total ALP [10]: significantly fell | IC50 [11]: 25 µM | pain in patients with osteoarthritis (with and without osteoporosis) [12]: pain reduction | adverse effect of large intravenous dosages [13]: marked hypocalcemia and/or hypophosphatemia

O=c1c(-c2ccc(O)cc2)coc2cc(O)cc(O)c12 [genistein, 4′,5,7-trihydroxyisoflavone]
band of p27, Western blot [14]: 65.4+/−4.7 gray scale value | cells in G2 phase [14]: 26.2% | cells in G(1) phase [14]: 73.8% | average cross sectional area of atherosclerotic lesion ([15]; hyperlipidemic plus genistein diet, 4 and half months): 0.997 mm2 | MMP-3 expression ([15]; western blotting, vs HD group): reduction | stimulatory effect of PDGF on sAPPalpha [16]: blocked | nuclear NF-kappa B levels (T lymphoma cells): marked reduction | attenuating menopause-related bone loss [17]: as effective as hormone replacement therapy | LPS-induced increase in IL-1 beta, IL-6, and TNF-alpha mRNA levels ([18]; 37 microM): completely or more than 80% blocked | LPS activation of NF-kappa B [18]: reduced | LPS-induced IL-6 protein synthesis and IL-6 bioactivity [18]: reduced to baseline levels | IC50 [19]: 223 µM | wall thickness of the basilar artery ([20]; 1 mg/kg chow, 2 months): reduced the wall thickness significantly | vasodilatation induced by ACh and Y-26763 [20]: significantly improved | retinal albumin by Western blot ([21]; 300 mg): decreased | retinal vascular leakage of radiolabeled sucrose ([21]; 150 or 300 mg/kg food, 6 months, vs diabetic control): significantly less | 50% inhibitory dose (IC50) for thymidine incorporation [22]: higher for the SHR vascular smooth muscle cells | expression of IL-6 mRNA induced by Ang II [23]: completely abolished | growth of MCF-7 cells [24]: significantly inhibit the growth | serum levels of autoantibodies to collagen II (mice; immunized mice): significantly lower | DTH reaction to oxazolone and granulocyte-mediated response (mice; vs control mice): significantly suppressed | CuLDL-induced enhancement of STAT1 and STAT3 Tyr-phosphorylation and DNA-binding activity (STAT1 and STAT3): markedly prevented | mean inhibition of thymidine uptake (+/−SD inhibition of basal) ([25]; 74 (unit uncertain)): 61.96+/−18.96% | mean inhibition of thymidine uptake ([25]; 740 (unit uncertain)): 92.65+/−8.59% | Epidermal growth factor stimulated thymidine uptake ([25]; clinically nonfunctioning adenomas): inhibited | IL-6- and OM-mediated effects (growth, resistance to etoposide and cisplatin) [26]: inhibited | inhibition of primary tumor growth ([27]; combined with radiation 5 Gy): 87% | inhibition of primary tumor growth ([27]; genistein alone, 5 mg/d p.o.): 30% | size of lymph nodes ([27]; genistein alone): increased the size of lymph nodes

Epigallocatechin-3-gallate [EGCG]
NF-kappaB nuclear translocation and IL-6 secretion induced by UVB and UVA (NF-kappaB): dramatically inhibited | phosphorylation of c-Jun (Male Wistar rats; 10 mg/kg iv then 10 mg/kg/h, all time points): markedly attenuated | Plasma IL-6 and creatine phosphokinase levels (Male Wistar rats; 10 mg/kg iv then 10 mg/kg/h): decreased | myocardial damage and myeloperoxidase activity (Male Wistar rats; 10 mg/kg iv then 10 mg/kg/h): reduced | reperfusion-induced activation of IKK, degradation of IκB-α, activation of NF-κB (Male Wistar rats; rat, in vivo): reduced | cell growth in culture and soft agar [28]: inhibited | INF-γ-induced STAT1 activation (STAT-1; T84 epithelial and THP-1 monocytes/macrophages): significantly reduced | interferon-γ-induced STAT-1 activation (STAT-1; carcinoma-derived cell lines of non-gut origin): blocked | EGF- or TPA-induced JB6 cell transformation (JB6 cell): inhibit | activator protein-1 (AP-1) activation (JB6 cell): inhibited | beta-amyloid (Abeta) levels and plaques (Tg APPsw transgenic mice): decreased | chemokine induced neutrophil chemotaxis (neutrophil): dramatically inhibit | reduction of Abeta generation [29]: ≤ 54% | NF-kappaB levels in cytoplasm and nucleus ([30]; 10-80 microM, A431 cells and NHEK): lowering of NF-kappaB levels | cell growth of A431 cells ([30]; dose-dependent, not in NHEK): inhibition of cell growth | IKK activity (IKK [31]): inhibited | TNF-α-mediated IKK activation (IKK [32]): inhibits | cell proliferation and apoptosis [33]: inhibition of cell proliferation

COc1cccc(-c2cc(=O)c3ccccc3o2)c1N [PD98059]
protection of IL-6 against apoptosis [34]: completely blocked | expression of IL-6 mRNA induced by Ang II [23]: completely abolished

CC/C=C\C/C=C\C/C=C\CCCCCCCC(=O)O [ALA, alpha-linolenic acid]
reduction of fasting sIL6R concentration (sIL6R): approximately 11% | ischemia- and reperfusion-induced arrhythmias (incidence of VT and VF) (rat models): not
